Laboratory results taken from ChEMBL document CHEMBL1126927.

What follows are molecules tested against Estrogen receptor (Ovis aries) (UniProt P49885+Q9TU15).
Description: Association constant for estrogen receptor
In the case of `O=C(c1ccc(OCCN2CCCC2)cc1)c1c(-c2ccc(O)cc2)sc2cc(O)ccc12`, the K ass was 1.3e+09.
With `[N-]=[N+]=Nc1c(F)c(F)c(C(=O)c2c(-c3ccc(O)cc3)sc3cc(O)ccc23)c(F)c1F` the K ass was 1.7e+08.
`[N-]=[N+]=Nc1ccc(C(=O)c2c(-c3ccc(O)cc3)sc3cc(O)ccc23)cc1` showed a K ass of 1e+09.
